Measured values as given in patent US5583127A, “17-iminomethylalkenyl-5 β, 14 β-androstane and 17-iminoalkyl-5 β, 14 β-androstane derivatives active on the cardiovascular system, and pharmaceutical compositions containing same” (Sigma-Tau Industrie Farmaceutiche Riunite S.p.A., priority 1993, dated 1996).
Where two headings read alike, the source gives them in different places.

Columns and labels:
[1] = system: spontaneous hypertensive rats (MHS); assay: effect of 5 week-treatment in spontaneous hypertensive rats (MHS) on the development of hypertension (SBP and HR, tail cuff); assay type: in vivo, rat; conditions: 10 mg/Kg/os daily in Methocel 0.5% w/v, 5 weeks
Protocol: Systolic blood pressure (SBP) and heart rate (HR) were measured, by the tail cuff method, in young prehypertensive male rats (MHS or SHR) strains before the development of hypertension (4 weeks of age) for recording the basal values of SBP. Groups of 7 rats were formed and subdivided in control and treated groups. The compound, suspended in Methocel 0.5% (w/v), was orally given daily for at least 5 weeks to the treated groups. The control group received only Methocel. SBP and HR were measured weekly 6 and 24 hrs after treatment. After 5 weeks of treatment, when hypertension was fully developed in the control group (9 weeks of age), washout was started for at least one week, to verify whether the treatment maintained blood pressure low or reestablished the basal values. […] (Takeda K. et al., Japan J. Pharmacol., 1979, 29,171; Takeda K. et al. Japan J. Pharmacol., 1982, 32, 283; Richer C. et al. Eur. J. Pharmacol, 1978, 47,393).

[2] = molecular target: Na^+, K^+ -ATPase receptor (Homo sapiens, UniProt P05023); assay: displacement of the specific 3H-ouabain binding from the Na+,K+-ATPase receptor
[3] = molecular target: purified Na^+,K^+ -ATPase (Homo sapiens, UniProt P05023); assay: inhibition of the activity of the purified Na+,K+-ATPase (% hydrolysis of 32P-ATP); assay type: biochemical; conditions: read-out: Inhibitory Activity log IC50 (converted)
Na^+,K^+ -ATPase = conditions: reported in literature; cited from earlier work
[4] = reported in literature; cited from earlier work
[5] = displacement of specific 3H-ouabain binding, read-out: Binding ^3 H-Ouab. Displacement log IC50 (converted)

C[C@]12CC[C@H](O)C[C@H]1CC[C@@H]1[C@@H]2CC[C@]2(C)[C@@H](/C=C/C=N/NC(=N)N)CC[C@]12O [Comp. I-aa, (E,E)-17β-(3-Guanidinoimino-1-propenyl)-5β-androstane-3β,14β-diol]
SBP (systolic blood pressure) ([1]; controls 172 +/- 3.5): 149 +/- 3.9 mm Hg | HR (heart rate) ([1]; controls 380 +/- 9.0): 373 +/- 10.0 beats/min. | IC50 [2, 5]: 0.0251 µM

C[C@]12CC[C@H](OCCN3CCCC3)C[C@H]1CC[C@@H]1[C@@H]2CC[C@]2(C)[C@@H](/C=C/C=NNC(=N)N)CC[C@]12O [Comp. I-bx, 3β-[2-(1-Pyrrolidinyl)ethoxy]-17β-(3-(E,Z)-guanidinoimino-1-(E)-propenyl)-5β-androstane-3β,14β-diol]
IC50 [2, 5]: 0.02 µM | IC50 ([3]; purified Na+,K+-ATPase): 0.126 µM

CN(C)CCON=C/C=C/[C@H]1CC[C@]2(O)[C@@H]3CC[C@@H]4C[C@@H](OCCN)CC[C@]4(C)[C@H]3CC[C@]12C (mixture of isomers) [Comp. I-cc, 3β-(2-Aminoethoxy)-17β-[3-(EZ)-(2-dimethylaminoethoxyimino)-1-(E)-propenyl]-5_62-androstane-14β-ol]
IC50 [2, 5]: 0.02 µM | IC50 ([3]; purified Na+,K+-ATPase): 0.0316 µM

C[C@]12CC[C@H](OCCCN)C[C@H]1CC[C@@H]1[C@@H]2CC[C@]2(C)[C@@H](/C=C/C=N/NC(=N)N)CC[C@]12O [qomp. I-cd, (E,E)-3β-(3-Aminopropoxy)-17β-(3-guanidinoimino-1-propenyl)-5β-androstane-3β,14β-diol]
IC50 [2, 5]: 0.0158 µM | IC50 ([3]; purified Na+,K+-ATPase): 0.0794 µM

C[C@]12CC[C@H](O)C[C@H]1CC[C@@H]1[C@@H]2CC[C@]2(C)C(=NNC(=N)N)CC[C@]12O [17-guanidinoimino-5β-androstane-3β,14β-diol]
inhibition of Na+,K+-ATPase (Na^+,K^+ -ATPase): weak inhibitors of Na^+,K^+ -ATPase | positive inotropic activity [4]: weak positive inotropic agents

C[C@]12CC[C@H](O)C[C@H]1CC[C@@H]1[C@@H]2CC[C@]2(C)[C@@H](/C=C/C=N\NC(=N)N)CC[C@]12O [Comp. I-ab, 17β-[3-(Z)-Guanidinoimino-1-(E)-propenyl]-5β-androstane-3β,14β-diol]
IC50 [2, 5]: 0.316 µM | IC50 [3]: 3.16 µM

C[C@]12CC[C@H](O)C[C@H]1CC[C@@H]1[C@@H]2CC[C@]2(C)[C@@H](/C=C/C=N/OCCN)CC[C@]12O [Comp. I-ao, (E,E)-17β-[3-(2-Aminoethoxyimino)-1-propenyl]-5β-androstane-3β,14β-diol]
IC50 [2, 5]: 0.0158 µM | IC50 ([3]; purified Na+,K+-ATPase): 0.02 µM

CN(C)CCON=C/C=C/[C@H]1CC[C@]2(O)[C@@H]3CC[C@@H]4C[C@@H](O)CC[C@]4(C)[C@H]3CC[C@]12C (mixture of isomers) [Comp. I-aq, 17β-[3-(EZ)-(2-Dimethylaminoethoxyimino)-1-(E)-propenyl]-5β-androstane-3β,14β-diol]
IC50 [2, 5]: 0.0251 µM | IC50 ([3]; purified Na+,K+-ATPase): 0.0316 µM

C[C@]12CC[C@H](O)C[C@H]1CC[C@@H]1[C@@H]2CC[C@]2(C)[C@@H](/C=C/C=N/NC3=NCC(=O)N3)CC[C@]12O [Comp. I-af, (E,E)-17β-[3-(5-Oxo-2-imidazolin-2-yl)hydrazono-1-propenyl]-5β-androstane-3β,14β-diol]
IC50 [2, 5]: 2 µM | IC50 ([3]; purified Na+,K+-ATPase): 39.8 µM

C[C@]12CC[C@H](O)C[C@H]1CC[C@@H]1[C@@H]2CC[C@]2(C)[C@@](O)(/C=C/C=N/NC(=N)N)CC[C@]12O [Comp. 1-bo, (E,E)-17β-(3-Guanidinoimino-1-propenyl)-5β-androstane-3β,14β,17α-triol]
IC50 [2, 5]: 0.501 µM | IC50 ([3]; purified Na+,K+-ATPase): 10 µM

CN(C)CCON=CC[C@H]1CC[C@]2(O)[C@@H]3CC[C@@H]4C[C@H](O)CC[C@]4(C)[C@H]3CC[C@]12C (mixture of isomers) [Comp. I-cm, (EZ)-17β-[2-(2-Dimethylaminoethoxyimino)ethyl]-5β-androstane-3α,14β-diol]
IC50 [2, 5]: 0.1 µM | IC50 [3]: 1 µM

CN(C)CCON=CC[C@H]1CC[C@]2(O)[C@@H]3CC[C@@H]4C[C@@H](O)CC[C@]4(C)[C@H]3CC[C@]12C (mixture of isomers) [Comp. I-bh, (EZ)-17β-[2-(2-Dimethylaminoethoxyimino)ethyl]-5β-androstane-3β,14β-diol]
IC50 [2, 5]: 0.0398 µM | IC50 ([3]; purified Na+,K+-ATPase): 0.631 µM

C[C@]12CC[C@H](O)C[C@H]1CC[C@@H]1[C@@H]2CC[C@]2(C)[C@@H](/C=C/C=NOCCNC(=N)N)CC[C@]12O (mixture of isomers) [Comp. I-as, 17β-[3-(EZ)-(2-Guanidinoethoxyimino)-1-(E)-propenyl]-5β-androstane-3β,14β-diol]
IC50 [2]: 0.1 µM | IC50 ([3]; purified Na+,K+-ATPase): 0.158 µM

C[C@]12CC[C@H](O)C[C@H]1CC[C@@H]1[C@@H]2CC[C@]2(C)[C@@H](/C=C/C=N\NC3=NCCCN3)CC[C@]12O [Comp. I-ah, 17β-[3-(Z)-(1,4,5,6-Tetrahydro-2-pyrimidinyl)hydrazono-1-(E)-propenyl]-5β-androstane-3β,14β-diol]
IC50 [2]: 0.794 µM | IC50 [3]: 7.94 µM

CN(C)CCCON=C/C=C/[C@H]1CC[C@]2(O)[C@@H]3CC[C@@H]4C[C@@H](O)CC[C@]4(C)[C@H]3CC[C@]12C (mixture of isomers) [Comp. I-ar, 17β-[3-(3-(EZ)-Dimethylaminopropoxyimino)-1-(E)-propenyl]-5β-androstane-3β,14β-diol]
IC50 [2, 5]: 0.0631 µM | IC50 ([3]; purified Na+,K+-ATPase): 0.126 µM

C[C@]12CC[C@H](O)C[C@H]1CC[C@@H]1[C@@H]2CC[C@]2(C)[C@@H](C=NNC(=N)N)CC[C@]12O [17β-guanidinoiminomethyl-5β-androstane-3β,14β-diol]
inhibition of Na+,K+-ATPase (Na^+,K^+ -ATPase): weak inhibitors of Na^+,K^+ -ATPase | positive inotropic activity [4]: weak positive inotropic agents

CN(C)CCON=CCC[C@H]1CC[C@]2(O)[C@@H]3CC[C@@H]4C[C@@H](O)CC[C@]4(C)[C@H]3CC[C@]12C (mixture of isomers) [Comp. I-bn, (EZ)-17β-[3-(2-Dimethylaminoethoxyimino)propyl]-5β-androstane-3β,14β-diol]
IC50 [2, 5]: 0.0251 µM | IC50 ([3]; purified Na+,K+-ATPase): 0.1 µM

C[C@]12CC[C@H](O)C[C@H]1CC[C@@H]1[C@@H]2CC[C@]2(C)[C@@H](CCC=NNC3=NCCN3)CC[C@]12O (mixture of isomers) [Comp. I-bj, (EZ)-17β-[3-(2-Imidazolin-2-yl)hydrazonopropyl]-5β-androstane-3β,14β-diol]
IC50 [2, 5]: 0.251 µM | IC50 [3]: 3.16 µM

C[C@]12CC[C@H](O)C[C@H]1CC[C@@H]1[C@@H]2CC[C@]2(C)[C@@H](CCC=NNC(=N)N)CC[C@]12O (mixture of isomers) [Comp. 1-bi, (EZ)-17β-(3-Guanidinoiminopropyl)-5β-androstane-3β,14β-diol]
IC50 [2, 5]: 0.126 µM | IC50 ([3]; purified Na+,K+-ATPase): 2 µM

CN(C)CCON=C/C=C/[C@H]1CC[C@]2(O)[C@@H]3CC[C@@H]4C[C@@H](OCCN5CCCC5)CC[C@]4(C)[C@H]3CC[C@]12C (mixture of isomers) [Comp. I-by, 3β-[2-(1-Pyrrolidinyl)ethoxy]-17β-[3-(EZ)-(2-dimethylamino-ethoxyimino)-1-(E)-propenyl]-5β-androstane-14β-ol]
IC50 [2, 5]: 0.02 µM | IC50 ([3]; purified Na+,K+-ATPase): 0.0316 µM

CN(C)CCON=CC[C@@]1(O)CC[C@]2(O)[C@@H]3CC[C@@H]4C[C@@H](O)CC[C@]4(C)[C@H]3CC[C@]12C (mixture of isomers) [Comp. I-bt, (EZ)-17β-[2-(2-Dimethylaminoethoxyimino)ethyl]-5β-androstane-3β,14β,17α-triol]
IC50 [2, 5]: 0.794 µM | IC50 ([3]; purified Na+,K+-ATPase): 10 µM

C[C@]12CC[C@H](O)C[C@H]1CC[C@@H]1[C@@H]2CC[C@]2(C)[C@@H](CC=NOCCN)CC[C@]12O (mixture of isomers) [Comp. I-bf, (EZ)-17β-[2-(2-Aminoethoxyimino)ethyl]-5β-androstane-3β,14β-diol]
IC50 [2, 5]: 0.0251 µM | IC50 ([3]; purified Na+,K+-ATPase): 0.316 µM

CN(C)CCON=CC[C@H]1CC[C@]2(O)[C@@H]3CC[C@@H]4C[C@@H](OCCCN5CCCC5)CC[C@]4(C)[C@H]3CC[C@]12C (mixture of isomers) [Comp. I-ci, 3β-[3-(1-Pyrrolidinyl)propoxy]-17β-[3-(EZ)-(2-dimethylamino-ethoxyimino)ethyl]-5β-androstane-14β-ol]
IC50 [2]: 0.0501 µM | IC50 ([3]; purified Na+,K+-ATPase): 0.158 µM

CC(CO[C@H]1CC[C@@]2(C)[C@H](CC[C@@H]3[C@@H]2CC[C@]2(C)[C@@H](/C=C/C=NOCCN(C)C)CC[C@]32O)C1)N1CCCC1 (mixture of isomers) [Comp. I-ca, 3β-[2-(1-Pyrrolidinyl)propoxy]-17β-[3-(EZ)-(2-dimethylamino-ethoxyimino)-1-(E)-propenyl]-5β-androstane-14β-ol]
IC50 [2, 5]: 0.0316 µM | IC50 ([3]; purified Na+,K+-ATPase): 0.0398 µM

C[C@]12CC[C@H](O)C[C@H]1CC[C@@H]1[C@@H]2CC[C@]2(C)[C@@H](CCC=NOCCN)CC[C@]12O (mixture of isomers) [Comp. I-bm, (EZ)-17β-[3-(2-Aminoethoxyimino)propyl]-5β-androstane-3β,14β-diol]
IC50 [2, 5]: 0.0251 µM | IC50 ([3]; purified Na+,K+-ATPase): 0.0794 µM
